# Entries after “also recorded” stand apart in the source; their conditions may differ. Non-standard residues stand in square brackets, D forms with d. Residues, ends and D or L forms follow the SMILES beside them. *: point of attachment. Biotin = O=C1N[C@H]2[C@H](CS[C@H]2CCCCC(=O)*)N1
# Assays:
# retina = assay: Biotin-HDAP2 uptake and distribution in retina; assay type: in vivo, mice
# Description: Biotin-HDAP2 (40 mg/kg) was administered intraperitoneally to mice (male or female) and 60 minutes later retina was collected, fixed and sectioned. […] (FIG. 7A and FIG. 7B).
# Biotin-HDAP2 uptake in retina: Adult animals were injected with 50 mg/kg biotin-HDAP2 (IP; GenScript, Piscataway, NJ) reconstituted in saline and observed for 2 hours before sacrifice. Eyes were marked to record their orientation, and the animals were given an overdose of ketamine (300 mg/kg)/xylazine (60 mg/kg) (IP) before removing each eye from the orbit with forceps. Whole eyes were dropped into 4% paraformaldehyde that was constituted in either 0.1M Tris or phosphate buffers (pH 7.3) and after ten minutes, the cornea, lens and vitreous body were removed to ensure better penetration of the fixative into the retina. The eyecups were returned to the fixative for one hour. Retinas for wholemounts were dissected from the pigment epithelium by cutting along the or a serrata, gently teasing the retina away from the back of the eye and then freeing the retina by severing the optic nerve. Retinas for cryo-sectioning remained in the eyecup, were cryoprotected in 0.1M Tris or phosphate-buffered sucrose (10%, 20% and 30%) prior to embedding in OCT (Polyfreeze, Polysciences) and sectioned at a thickness of 14 μm at −25° C. using a cryostat (Leica CM3050S).
# Immunohistochemistry: Fixed retinas were labeled with cell markers using conventional immunohistochemical protocols to identify cells and structures associated with biotin-HDAP2, and to identify retinal ganglion cells and starburst amacrine cells to assess cell survival following optic nerve crush. Retinas and sections were blocked and permeabilized with 4% normal donkey serum in 0.1M Tris or phosphate buffers with 0.5% Triton-X for 1 hour and then incubated overnight (for sections) or for 3 days (for wholemounts) at 4° C. in selected primary antibodies, and 2% normal donkey serum in the same buffer. […]
# MDBK cells [1] = assay: Mitochondrial membrane potential in serum-starved cells (MitoTracker Red); assay type: cell-based, bovine
# Description: MDBK cells incubated in serum free media for 5-7 days in the presence or absence of 1 μM of biotin-HDAP2. At the end of the incubation period 100 nM MitoTracker was added to the cells and incubated for 15 minutes. Then, media was removed and cells were fixed in 4% PFA. Cells were then visualized using a fluorescent microscope (Nikon Eclipse-ci-SRS). Experiments were conducted 5 times in triplicate for each experimental condition.
# To measure the effects of biotin-HDAP2 on the mitochondrial potential and cellular oxidative stress, cells were cultured in DMEM/F12 without fetal bovine serum (FSB) in the presence or absence of biotin-HDAP2 (1 μM). After 3 days, nuclei were labeled with Hoechst 33342 (10 μg/ml) and cells were incubated for 15 minutes at 37° C. with MTR (100 nM) to evaluate the strength of the mitochondrial potential or were incubated with the general oxidative stress indicator CM-H2DCFDA (5 μM, Invitrogen, Carlsbad, CA) for 15 min at 37° C. In each instance, cells were imaged immediately after staining and prior to fixation.
# Unless otherwise noted, data for all tissue culture experiments were collected from three independent trials, with each experiment done in triplicate. For each experiment, 4-6 fields of cells were randomly selected and imaged using a Nikon Eclipse 50i fluorescent microscope with a 40X immersion objective (NA 0.8) and using filters specific for either green or red wavelengths as appropriate (ex488 nm/ex515-540 nm). Photooxidation of the indicator dyes were minimized by using single exposures to the fluorescence for each field imaged. Fluorescence intensity was analyzed using ImageJ (NIH), and MTR and CM-H2DCFDA fluorescence were normalized to Hoechst fluorescence to account for differences in cell number in each field. Differences among groups were compared by Student's t-test and P values less than 0.05 were considered significant. All data are expressed as means±SEM.
# MDBK cells [2] = conditions: dilutions up 100 μM
# ARPE-19 cells = assay: Restoration of mitochondrial membrane potential after 3 days of serum starvation (TMRM); assay type: cell-based; conditions: 2 hours incubation after 3 days of serum starvation
# Text: Serum starvation for 3 days reduced mitochondrial membrane potential in serum-free controls (SFC), compared to regular cells grown on serum (FBS). […] Error bars represent SEM (n=5) ***P<0.001.
# [3] = Displacement of nonyl acridine orange (NAO) from POPC-CL liposomes; assay type: binding, bovine
# Description: The resulting multilamellar vesicles were vortexed lightly and sized into small unilamellar vesicles by heated bath sonication for 25 min. All liposomes were cooled to ambient temperature before use.
# Interaction of biotin-HDAP2 Peptide with Phospholipids: The ability of biotin-HDAP2 to displace nonyl acridine orange (NAO), a fluoroprobe known to selectively bind CL was determined. Interaction of biotin-HDAP2 with phospholipids was examined by measuring changes in the fluorescence spectra of 3 μM NAO (Molecular Devices, Sunnyvale, CA)) with excitation at 480 nm. CL and POPC in liposomes were use at 30 μM. Dose response curves were done with 30 μM CL, biotin-HDAP2 (0, 2.5, 5, 10, 20, and 30 μM), and 3 μM of NAO (ex/em at 480 nm/520 nm). All experiments were done in 10 mM Hepes (pH 7.4) to optimize electrostatic interactions of peptides with phospholipids.
smiles,measurement,setting,value
"N=C(N)NCCC[C@@H](NC(=O)[C@H](Cc1ccccc1)NC(=O)[C@H](Cc1ccccc1)NC(=O)[C@@H](CCCNC(=N)N)NC(=O)CCCC[C@@H]1SC[C@@H]2NC(=O)N[C@@H]21)C(N)=O [biotin-HDAP2, Biotin-dArg-Phe-Phe-dArg-NH2] (Biotin-[dR]FF[dR]-NH2)",distribution in retina,"retina; 3 mg/kg, IP",labeled all layers of the retina
same,distribution in retina,"retina; 40 mg/kg intraperitoneally, 60 minutes",widely distributed throughout the retina
same,penetration of the retina-blood barrier,retina; intravitreal injection and systemic administration,can penetrate the retina-blood barrier
same,mitochondria membrane potential in starved cells,"MDBK cells [1]; 1 μM, serum free 5-7 days, 100 nM MitoTracker",improved mitochondria membrane potential in starved cells
same,increase of MitoTracker Red CMXRos fluorescence intensity vs untreated controls,"MDBK cells [1]; 1 μM, serum starvation",over 2.5 times
same,increase of mitochondrial membrane potential compared to serum-free control,"MDBK cells [1]; 1 μM, serum-free 3-4 days",150%
same,improvement of mitochondrial potential,MDBK cells [1]; FIG. 10D,2.5 fold
same,cellular toxicity,MDBK cells [2],No toxicity in MDBK cell growth was observed
same,restoration of mitochondrial membrane potential,ARPE-19 cells,restored mitochondrial membrane potential within 2 hours
same,effect on intensity of NAO fluorescence,[3],decreased the intensity of NAO fluorescence to background levels; also recorded: decreases the intensity of NAO fluorescence with POPC-CL liposomes in a dose-dependent manner

# Source: patent publication US20250276996A1, “CATIONICALLY-ENFRAMED HIGH DENSITY AROMATIC PEPTIDES” (Research Foundation of the City University of New York, priority 2022, published 2025)
